# Reference: US6593325B1, “Pyrido-pyridazine derivatives as ligands for GABA receptors” (Merck Sharp & Dohme Ltd., priority 1999, dated 2003)
smiles,measurement,value
"Cn1ncnc1COc1nc2c(-c3ccccc3)nncc2cc1-c1ccccc1 [Example 1, 3,8-Diphenyl-2-(2-methyl-2H-[1,2,4]triazol-3-ylmethoxy)pyrido[2,3-d]pyridazine]",melting point,222 to 223 °C
